Experimental data as given in the supplement of paper PMC4862054.

What follows are compounds tested on BT-549 (assay: normalised response (% of control), CellTiter-Glo; higher = more viable cells (100 = DMSO, 0 = benzethonium chloride kill control)). Conditions: incubation time: 72 h.
Summary of the method: (§1)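 Each value is the plate-normalised signal at one concentration of the series. Breast cancer cell lines (20 µl suspension) were incubated 72 h in 384-well plates with compound at 5 concentrations in 10-fold steps over a compound-specific 10,000-fold range. CellTox Green and then CellTiter-Glo were read, and each plate was scaled to 0.1 % DMSO (100) and a positive kill control (0).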

How did the normalised response turn out when `COc1cc2c(NC3CCN(C(C)C)CC3)nc(C3CCCCC3)nc2cc1OCCCN1CCCC1` [UNC0638] (1000 nM) was run?
Its normalised response is 91.6%.

With `CCc1cncnc1N1CCN(Cc2nc3ccc(C(F)(F)F)cc3[nH]2)CC1` (1000 nM) as the compound, how does the normalised response read?
Its normalised response is 83.6%.

`COc1cc2c(Oc3ccc4[nH]c(C)cc4c3F)ncnc2cc1OCCCN1CCCC1` [Cediranib] (100 nM) was tested. Which normalised response did it give?
Its normalised response is 108%.

How did the normalised response turn out when `CC[C@@H]1C(=O)N(C)c2cnc(Nc3ccc(C(=O)NC4CCN(C)CC4)cc3OC)nc2N1C1CCCC1` [BI 2536] (100 nM) was run?
The normalised response was 23.6%.

How did the normalised response turn out when `O=C(O)CCCCC(CCSCc1ccccc1)SCc1ccccc1` (centres undefined) [CPI-613] (1000 nM) was run?
The normalised response was 102%.

With `Nc1ncn([C@H]2C[C@H](O)[C@@H](CO)O2)c(=O)n1` [Decitabine] (1000 nM) as the compound, how does the normalised response read?
Its normalised response is 77.8%.

The compounds below were run on CAL-120 in the same assay as above. Conditions: incubation time: 72 h.
Summary of the method: as §1

`COc1cc2c(NC3CCN(C(C)C)CC3)nc(C3CCCCC3)nc2cc1OCCCN1CCCC1` [UNC0638] (1000 nM) was tested. Which normalised response did it give?
Its normalised response is 92.8%.

For `CCc1cncnc1N1CCN(Cc2nc3ccc(C(F)(F)F)cc3[nH]2)CC1` (1000 nM), which normalised response is on record?
The normalised response was 98.1%.

How did the normalised response turn out when `COc1cc2c(Oc3ccc4[nH]c(C)cc4c3F)ncnc2cc1OCCCN1CCCC1` [Cediranib] (100 nM) was run?
The normalised response was 103%.

For `CC[C@@H]1C(=O)N(C)c2cnc(Nc3ccc(C(=O)NC4CCN(C)CC4)cc3OC)nc2N1C1CCCC1` [BI 2536] (100 nM), which normalised response is on record?
The normalised response was 63.4%.

For `O=C(O)CCCCC(CCSCc1ccccc1)SCc1ccccc1` (centres undefined) [CPI-613] (1000 nM), which normalised response is on record?
Its normalised response is 98.1%.

Which normalised response does the source give for `Nc1ncn([C@H]2C[C@H](O)[C@@H](CO)O2)c(=O)n1` [Decitabine] (1000 nM) here?
The normalised response was 91.7%.

These compounds were tested on CAL-148 in the same assay as above. Conditions: incubation time: 72 h.
Summary of the method: as §1

Which normalised response does the source give for `COc1cc2c(NC3CCN(C(C)C)CC3)nc(C3CCCCC3)nc2cc1OCCCN1CCCC1` [UNC0638] (1000 nM) here?
The normalised response was 88.9%.

How did the normalised response turn out when `CCc1cncnc1N1CCN(Cc2nc3ccc(C(F)(F)F)cc3[nH]2)CC1` (1000 nM) was run?
Its normalised response is 103%.

Which normalised response does the source give for `COc1cc2c(Oc3ccc4[nH]c(C)cc4c3F)ncnc2cc1OCCCN1CCCC1` [Cediranib] (100 nM) here?
The normalised response was 103%.

Which normalised response does the source give for `CC[C@@H]1C(=O)N(C)c2cnc(Nc3ccc(C(=O)NC4CCN(C)CC4)cc3OC)nc2N1C1CCCC1` [BI 2536] (100 nM) here?
Its normalised response is 68.1%.

With `O=C(O)CCCCC(CCSCc1ccccc1)SCc1ccccc1` (centres undefined) [CPI-613] (1000 nM) as the compound, how does the normalised response read?
The normalised response was 100%.

How did the normalised response turn out when `Nc1ncn([C@H]2C[C@H](O)[C@@H](CO)O2)c(=O)n1` [Decitabine] (1000 nM) was run?
Its normalised response is 83.5%.

The compounds below were run on CAL-51 in the same assay as above. Conditions: incubation time: 72 h.
Summary of the method: as §1

`COc1cc2c(NC3CCN(C(C)C)CC3)nc(C3CCCCC3)nc2cc1OCCCN1CCCC1` [UNC0638] (1000 nM) was tested. Which normalised response did it give?
The normalised response was 71.4%.

For `CCc1cncnc1N1CCN(Cc2nc3ccc(C(F)(F)F)cc3[nH]2)CC1` (1000 nM), which normalised response is on record?
The normalised response was 67%.

`COc1cc2c(Oc3ccc4[nH]c(C)cc4c3F)ncnc2cc1OCCCN1CCCC1` [Cediranib] (100 nM) was tested. Which normalised response did it give?
Its normalised response is 107%.

How did the normalised response turn out when `CC[C@@H]1C(=O)N(C)c2cnc(Nc3ccc(C(=O)NC4CCN(C)CC4)cc3OC)nc2N1C1CCCC1` [BI 2536] (100 nM) was run?
The normalised response was 21.9%.

Which normalised response does the source give for `O=C(O)CCCCC(CCSCc1ccccc1)SCc1ccccc1` (centres undefined) [CPI-613] (1000 nM) here?
Its normalised response is 114%.

Which normalised response does the source give for `Nc1ncn([C@H]2C[C@H](O)[C@@H](CO)O2)c(=O)n1` [Decitabine] (1000 nM) here?
Its normalised response is 83.6%.

Each compound was assayed on CAL-85-1 in the same assay as above. Conditions: incubation time: 72 h.
Summary of the method: as §1

With `COc1cc2c(NC3CCN(C(C)C)CC3)nc(C3CCCCC3)nc2cc1OCCCN1CCCC1` [UNC0638] (1000 nM) as the compound, how does the normalised response read?
The normalised response was 106%.

For `CCc1cncnc1N1CCN(Cc2nc3ccc(C(F)(F)F)cc3[nH]2)CC1` (1000 nM), which normalised response is on record?
The normalised response was 97.7%.

With `COc1cc2c(Oc3ccc4[nH]c(C)cc4c3F)ncnc2cc1OCCCN1CCCC1` [Cediranib] (100 nM) as the compound, how does the normalised response read?
The normalised response was 100%.

How did the normalised response turn out when `CC[C@@H]1C(=O)N(C)c2cnc(Nc3ccc(C(=O)NC4CCN(C)CC4)cc3OC)nc2N1C1CCCC1` [BI 2536] (100 nM) was run?
The normalised response was 81.7%.

For `O=C(O)CCCCC(CCSCc1ccccc1)SCc1ccccc1` (centres undefined) [CPI-613] (1000 nM), which normalised response is on record?
Its normalised response is 97.1%.

Which normalised response does the source give for `Nc1ncn([C@H]2C[C@H](O)[C@@H](CO)O2)c(=O)n1` [Decitabine] (1000 nM) here?
Its normalised response is 105%.

What follows are compounds tested on DU-4475 in the same assay as above. Conditions: incubation time: 72 h.
Summary of the method: as §1

`COc1cc2c(NC3CCN(C(C)C)CC3)nc(C3CCCCC3)nc2cc1OCCCN1CCCC1` [UNC0638] (1000 nM) was tested. Which normalised response did it give?
The normalised response was 92.1%.

How did the normalised response turn out when `CCc1cncnc1N1CCN(Cc2nc3ccc(C(F)(F)F)cc3[nH]2)CC1` (1000 nM) was run?
The normalised response was 93.4%.

How did the normalised response turn out when `COc1cc2c(Oc3ccc4[nH]c(C)cc4c3F)ncnc2cc1OCCCN1CCCC1` [Cediranib] (100 nM) was run?
Its normalised response is 97.3%.

Which normalised response does the source give for `CC[C@@H]1C(=O)N(C)c2cnc(Nc3ccc(C(=O)NC4CCN(C)CC4)cc3OC)nc2N1C1CCCC1` [BI 2536] (100 nM) here?
The normalised response was 63.3%.

Which normalised response does the source give for `O=C(O)CCCCC(CCSCc1ccccc1)SCc1ccccc1` (centres undefined) [CPI-613] (1000 nM) here?
Its normalised response is 99.1%.

How did the normalised response turn out when `Nc1ncn([C@H]2C[C@H](O)[C@@H](CO)O2)c(=O)n1` [Decitabine] (1000 nM) was run?
Its normalised response is 90.1%.

Each compound was assayed on HCC1143 in the same assay as above. Conditions: incubation time: 72 h.
Summary of the method: as §1

Which normalised response does the source give for `COc1cc2c(NC3CCN(C(C)C)CC3)nc(C3CCCCC3)nc2cc1OCCCN1CCCC1` [UNC0638] (1000 nM) here?
Its normalised response is 93.3%.

Which normalised response does the source give for `CCc1cncnc1N1CCN(Cc2nc3ccc(C(F)(F)F)cc3[nH]2)CC1` (1000 nM) here?
The normalised response was 102%.

`COc1cc2c(Oc3ccc4[nH]c(C)cc4c3F)ncnc2cc1OCCCN1CCCC1` [Cediranib] (100 nM) was tested. Which normalised response did it give?
The normalised response was 97.3%.

`CC[C@@H]1C(=O)N(C)c2cnc(Nc3ccc(C(=O)NC4CCN(C)CC4)cc3OC)nc2N1C1CCCC1` [BI 2536] (100 nM) was tested. Which normalised response did it give?
Its normalised response is 47.5%.

`O=C(O)CCCCC(CCSCc1ccccc1)SCc1ccccc1` (centres undefined) [CPI-613] (1000 nM) was tested. Which normalised response did it give?
The normalised response was 102%.

For `Nc1ncn([C@H]2C[C@H](O)[C@@H](CO)O2)c(=O)n1` [Decitabine] (1000 nM), which normalised response is on record?
The normalised response was 90.4%.

What follows are compounds tested on HCC1599 in the same assay as above. Conditions: incubation time: 72 h.
Summary of the method: as §1

How did the normalised response turn out when `COc1cc2c(NC3CCN(C(C)C)CC3)nc(C3CCCCC3)nc2cc1OCCCN1CCCC1` [UNC0638] (1000 nM) was run?
The normalised response was 82.1%.

Which normalised response does the source give for `CCc1cncnc1N1CCN(Cc2nc3ccc(C(F)(F)F)cc3[nH]2)CC1` (1000 nM) here?
Its normalised response is 98.8%.

For `COc1cc2c(Oc3ccc4[nH]c(C)cc4c3F)ncnc2cc1OCCCN1CCCC1` [Cediranib] (100 nM), which normalised response is on record?
Its normalised response is 98%.

`CC[C@@H]1C(=O)N(C)c2cnc(Nc3ccc(C(=O)NC4CCN(C)CC4)cc3OC)nc2N1C1CCCC1` [BI 2536] (100 nM) was tested. Which normalised response did it give?
Its normalised response is 37.9%.

How did the normalised response turn out when `O=C(O)CCCCC(CCSCc1ccccc1)SCc1ccccc1` (centres undefined) [CPI-613] (1000 nM) was run?
The normalised response was 108%.

With `Nc1ncn([C@H]2C[C@H](O)[C@@H](CO)O2)c(=O)n1` [Decitabine] (1000 nM) as the compound, how does the normalised response read?
The normalised response was 103%.

These compounds were tested on HCC1937 in the same assay as above. Conditions: incubation time: 72 h.
Summary of the method: as §1

Which normalised response does the source give for `COc1cc2c(NC3CCN(C(C)C)CC3)nc(C3CCCCC3)nc2cc1OCCCN1CCCC1` [UNC0638] (1000 nM) here?
The normalised response was 89.9%.

`CCc1cncnc1N1CCN(Cc2nc3ccc(C(F)(F)F)cc3[nH]2)CC1` (1000 nM) was tested. Which normalised response did it give?
Its normalised response is 91.1%.

For `COc1cc2c(Oc3ccc4[nH]c(C)cc4c3F)ncnc2cc1OCCCN1CCCC1` [Cediranib] (100 nM), which normalised response is on record?
Its normalised response is 98.1%.

`CC[C@@H]1C(=O)N(C)c2cnc(Nc3ccc(C(=O)NC4CCN(C)CC4)cc3OC)nc2N1C1CCCC1` [BI 2536] (100 nM) was tested. Which normalised response did it give?
The normalised response was 86.7%.

How did the normalised response turn out when `O=C(O)CCCCC(CCSCc1ccccc1)SCc1ccccc1` (centres undefined) [CPI-613] (1000 nM) was run?
Its normalised response is 101%.

With `Nc1ncn([C@H]2C[C@H](O)[C@@H](CO)O2)c(=O)n1` [Decitabine] (1000 nM) as the compound, how does the normalised response read?
The normalised response was 87.9%.
